US20090203526A1, “METHOD OF CONTROLLING UNWANTED VEGETATION” (Arysta LifeScience North America, LLC, priority 2008, published 2009)

What was measured:
Type in all cases: in vivo
Settings in all cases: Site No. 1 (control site; g active/ha): Pre-emergent Glyphosate 450, Ammonium sulphate 1.12 kg/ha
Wild Oat [1] = test: Example 8 field sites: visual % control of Wild Oat
Protocol: Another study was conducted to test various application methods using flucarbazone-sodium (PrePare) in a pre-emergent application followed by post-emergent application with propoxycarbazone (OLYMPUS®), pyroxsulam (SIMPLICITY®), sulfosulfuron ([…]®), pinoxaden (AXIAL™ XL) and flucarbazone-sodium (EVEREST®) to control Wild Oat.
To better evaluate the ability of each treatment scheme in controlling unwanted vegetation in a planting site, a group of nearly identical crop planting sites (Site 1-Site 10) were subjected to different treatment schemes. Site No. 1 was again a control site and sites No. 2-Sites No. 10 were treated with varying treatment schemes. Again, the treatment rates were based on the recommended lower rate provided on the product label (grams of active ingredient per hectare). […]
Site No. 1 was not treated with a pre-emergent application or post-emergent application of herbicidally active compounds, allowing Wild Oat to emerge either with the crop or after crop emergence. […] Thus, percent control for Wild Oat was evaluated as the weed-free area in the particular site in comparison to the completely weed covered Site No. 1. Further, the respective crop yield for each crop planting site was also recorded. […]

Wild Oat [2] = test: Example 6 field sites: visual % control of wild oat
Protocol: A study was conducted to test various application methods using flucarbazone-sodium (PREPARE) in a pre-emergent application followed by post-emergent application with clodinafop (DISCOVER® NG), pinoxaden (AXIAL™ XL) and flucarbazone-sodium (EVEREST®) for control of wild oat.
To better evaluate the ability of each treatment scheme in controlling unwanted vegetation in a planting site, a group of nearly identical crop planting sites (Site 1-Site 7) were subjected to different treatment schemes. Site No. 1 was to act as a control site and Site No. 2-Sites No. 7 were treated with a pre-emergent treatment or sequential pre-emergent and post-emergent treatment schemes. Treatment rates were based on the recommended rate provided on the product label (grams of active ingredient per hectare). Since the label provides a range, the rate applied is based on the lower recommended rate from the label range. […]
Site No. 1 was not treated with a pre-emergent or a post-emergent application of a herbicidally active compound according to embodiments of the present invention, allowing wild oat to emerge either with the crop or after crop emergence. […] Thus, percent control for wild oat was evaluated as the weed-free area in the particular site in comparison to the completely weed covered Site No. 1. […]

Bromus secalinus = test: Example 7 field sites: visual % control of Cheat (Bromus secalinus)
Protocol: (§1) Another study was conducted to test various application methods using flucarbazone-sodium (PREPARE) in a pre-emergent application followed by post-emergent application with propoxycarbazone (OLYMPUS®), pyroxsulam (Simplicity®), sulfosulfuron ([…]®), pinoxaden (AXIAL™ XL) and flucarbazone-sodium (EVEREST®) to control Bromus secalinus and Foxtail Barley.
(§2) To better evaluate the ability of each treatment scheme in controlling unwanted vegetation in a planting site, a group of nearly identical crop planting sites (Site 1-Site 10) were subjected to different treatment schemes. Again, Site No. 1 was a control site. Sites No. 2-Sites No. 10 were treated with either a pre-emergent treatment or sequential pre-emergent and post-emergent treatment schemes. Treatment rates were based on the recommended lower rate provided on the product label (grams of active ingredient per hectare). […]
(§3) Site No. 1 was not treated with a pre-emergent treatment or a post-emergent treatment, allowing Bromus secalinus and Foxtail Barley to emerge either with the crop or after crop emergence. […] Thus, percent control for Bromus secalinus and Foxtail Barley were evaluated as the weed-free area in the particular site in comparison to the completely weed covered Site No. 1. […]

crop = system: crop
Protocol: Site No. 1 was again a control site and sites No. 2-Sites No. 10 were treated with varying treatment schemes. […] In all sites, any pre-existing weeds that germinated and grew to cover the sites were removed with glyphosate to ensure a more accurate determination of the viability of each treatment scheme. For Site No. 2-Site No. 10, glyphosate was tank-mixed with PREPARE and applied to each site prior to the emergence of the desired crop.
The remaining sites were allowed the same amount of time for weed growth and were visually compared to crop planting site (Site No. 1). […] Further, the respective crop yield for each crop planting site was also recorded.
Ammonium sulphate is a commercially available fertilizer blend used as an adjuvant to improve performance of glyphosate.

Foxtail Barley = test: Example 7 field sites: visual % control of Foxtail Barley
Protocol: as §1, §2, §3

## O=C(O)CNCP(=O)(O)O [Glyphosate, glyphosate]
Wild Oat [1]
  % Control of Wild Oat at 86 days after application: 27%
Wild Oat [2]
  % Control of Wild Oat at 89 days after application: 0%
Bromus secalinus
  % Control of Cheat (Bromus secalinus) at 86 days after application: 5%
crop
  Crop Yield: 20.1 Bu./Acre
Foxtail Barley
  % Control of Foxtail Barley at 86 days after application: 0%
